In test [1] the target is human CB1 receptor (hCB1) (Homo sapiens, UniProt P21554). The test can be described thus: cell-based. It counts as cell-based. The procedure, abridged: (§1)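 First, cells in IBMX-containing HEPES-buffered HBSS are raised to elevated cAMP with 2-8 μM NKH-477 for 30 min. Data are normalised to the forskolin and forskolin + 1 μM CP55,940 controls.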
Another test concerns the target T1, rat CB2 receptor (rCB2) (Rattus norvegicus, UniProt Q9QZN9).
T1 sequence (Q9QZN9 1-360): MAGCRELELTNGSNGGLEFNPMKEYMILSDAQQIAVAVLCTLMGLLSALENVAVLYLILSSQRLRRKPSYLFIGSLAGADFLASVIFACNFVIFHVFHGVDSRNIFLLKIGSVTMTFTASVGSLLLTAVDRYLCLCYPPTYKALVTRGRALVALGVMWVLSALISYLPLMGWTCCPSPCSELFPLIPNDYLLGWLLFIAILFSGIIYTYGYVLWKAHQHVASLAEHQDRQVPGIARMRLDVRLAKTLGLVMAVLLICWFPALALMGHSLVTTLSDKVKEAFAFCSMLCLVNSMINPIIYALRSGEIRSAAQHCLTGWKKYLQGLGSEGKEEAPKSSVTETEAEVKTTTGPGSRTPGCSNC
The test can be described thus: cell-based. The format is cell-based. The following applies: for +/− RCB2: agonist or inverse agonist at rCB2. An outline of the steps: as §1

The mark [2] stands for this setting: groups >100 nM-10 μM and >10 μM, cAMP, CHO-K1 hCB1, read-out: EC50 HCB1.

Read-outs that look alike come from different tables or passages of the source.

Chain of human CB1 receptor (hCB1) (P21554 whole entry): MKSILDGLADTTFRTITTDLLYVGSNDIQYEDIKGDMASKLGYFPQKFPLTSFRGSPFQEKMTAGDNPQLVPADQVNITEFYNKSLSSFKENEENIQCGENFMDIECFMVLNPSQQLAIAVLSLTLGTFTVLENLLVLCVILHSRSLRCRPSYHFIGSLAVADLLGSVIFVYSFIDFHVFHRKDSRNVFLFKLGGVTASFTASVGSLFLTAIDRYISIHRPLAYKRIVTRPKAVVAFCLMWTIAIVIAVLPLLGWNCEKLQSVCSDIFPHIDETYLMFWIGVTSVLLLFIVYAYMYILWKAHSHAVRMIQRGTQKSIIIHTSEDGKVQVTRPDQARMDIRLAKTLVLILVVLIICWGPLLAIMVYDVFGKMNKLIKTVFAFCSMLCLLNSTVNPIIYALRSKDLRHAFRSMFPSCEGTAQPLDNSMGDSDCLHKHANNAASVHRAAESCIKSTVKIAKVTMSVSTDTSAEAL

The term EC50 denotes the concentration that produces a half-maximal response. Take `CCN1CCn2c(-c3ccccc3)nc(C(=O)Nc3ccccc3)c2C1` [Compound 152, 7-ethyl-N,3-diphenyl-5,6,7,8-tetrahydroimidazo[1,5-a]pyrazine-1-carboxamide]: in test [1], the EC50 is greater than 10000 nM. For the same compound, on rat CB2 receptor (rCB2), the “+/− RCB2” value is on record as “−”.

Regarding `Cc1ccc(-c2nc(C(=O)N[C@H](c3nc(C)no3)C(C)(C)C)c3n2CCCN(C)C3)c(F)c1` [Compound 522, (S)-N-(2,2-dimethyl-1-(3-methyl-1,2,4-oxadiazol-5-yl)propyl)-3-(2-fluoro-4-methylphenyl)-8-methyl-6,7,8,9-tetrahydro-5H-imidazo[1,5-a][1,4]diazepine-1-carboxamide], the concentration giving a half-maximal response (EC50) in test [1] is greater than 10000 nM. Further, on rat CB2 receptor (rCB2), the “+/− RCB2” value was “−”.

Compound `CNC(=O)[C@@H](NC(=O)c1nc(-c2ccccc2)n2c1CN(C(=O)OC)CC2)C(C)(C)C` [Compound 180, (S)-methyl 1-(3,3-dimethyl-1-(methylamino)-1-oxobutan-2-ylcarbamoyl)-3-phenyl-5,6-dihydroimidazo[1,5-a]pyrazine-7(8H)-carboxylate] registered an EC50 in test [1] greater than 10000 nM. The “+/− RCB2” value on rat CB2 receptor (rCB2) was “−”.

With `CNC(=O)[C@@H](NC(=O)c1nc(C2=CCOCC2)n2c1CN(C)CCC2)C(C)(C)C` [Compound 594, (S)-3-(3,6-dihydro-2H-pyran-4-yl)-N-(3,3-dimethyl-1-(methylamino)-1-oxobutan-2-yl)-8-methyl-6,7,8,9-tetrahydro-5H-imidazo[1,5-a][1,4]diazepine-1-carboxamide], the “+/− HCB1” value in test [1] (agonist or inverse agonist at hCB1) was “+”. For the same compound, at rat CB2 receptor (rCB2), the “+/− RCB2” value was “+”.

On to `CN1CCn2c(-c3ccccc3)nc(C(=O)CC(C)(C)C)c2C1` [Compound 292, 3,3-dimethyl-1-(7-methyl-3-phenyl-5,6,7,8-tetrahydroimidazo[1,5-a]pyrazin-1-yl)butan-1-one], for which the concentration giving a half-maximal response (EC50) in test [1] (setting [2]) was greater than 10000 nM. The “+/− RCB2” value on rat CB2 receptor (rCB2) is recorded as “−”.

`CNC(=O)[C@@H](NC(=O)c1nc(C2CCCCC2)n2c1CN(C)CCC2)C(C)(C)C` [Compound 487, (S)-3-cyclohexyl-N-(3,3-dimethyl-1-(methylamino)-1-oxobutan-2-yl)-8-methyl-6,7,8,9-tetrahydro-5H-imidazo[1,5-a][1,4]diazepine-1-carboxamide] displayed an EC50 in test [1] greater than 10000 nM. The “+/− RCB2” value at rat CB2 receptor (rCB2) is reported as “+”.

As to `CNC(=O)[C@@H](NC(=O)c1nc(-c2ccc(OC)cc2F)n2c1CN(C)CCC2)C(C)(C)C` [Compound 358], the 50% effective concentration (EC50) in test [1] is greater than 10000 nM. At rat CB2 receptor (rCB2), the “+/− RCB2” value is reported as “−”.

Regarding `CC(C)(C)OC(=O)N1CCn2c(-c3ccccc3)nc(C(=O)NN3CCCCC3)c2C1` [Compound 35, tert-butyl 3-phenyl-1-(piperidin-1-ylcarbamoyl)-5,6-dihydroimidazo[1,5-a]pyrazine-7(8H)-carboxylate], the EC50 in test [1] (setting [2]) was greater than 10000 nM. Also, the “+/− RCB2” value at rat CB2 receptor (rCB2) is recorded as “−”.

Take `C[C@H](NC(=O)c1nc(-c2ccccc2)n2c1CN(CCO)CC2)c1ccccc1` [Compound 146, (S)-7-(2-hydroxyethyl)-3-phenyl-N-(1-phenylethyl)-5,6,7,8-tetrahydroimidazo[1,5-a]pyrazine-1-carboxamide]: in test [1], the EC50 is greater than 10000 nM. Further, the “+/− RCB2” value on rat CB2 receptor (rCB2) is recorded as “−”.

Turning to `CC(C)(C)[C@@H](CO)NC(=O)c1nc(-c2ccccc2)n2c1CNCC2` [Compound 22, (S)-N-(1-hydroxy-3,3-dimethylbutan-2-yl)-3-phenyl-5,6,7,8-tetrahydroimidazo[1,5-a]pyrazine-1-carboxamide], in test [1], the EC50 was greater than 10000 nM. For the same compound, the “+/− RCB2” value on rat CB2 receptor (rCB2) was “−”.

Turning to `CNC(=O)[C@@H](NC(=O)c1nc(-c2ccc(NS(C)(=O)=O)cc2)n2c1CN(C)CCC2)C(C)(C)C` [Compound 420, (S)-N-(3,3-dimethyl-1-(methylamino)-1-oxobutan-2-yl)-8-methyl-3-(4-(methylsulfonamido)phenyl)-6,7,8,9-tetrahydro-5H-imidazo[1,5-a][1,4]diazepine-1-carboxamide], the EC50 in test [1] is greater than 10000 nM. In addition, at rat CB2 receptor (rCB2), the “+/− RCB2” value is on record as “−”.

With `CNC(=O)[C@@H](NC(=O)c1nc(-c2cccnc2)n2c1CN(C)CC2)C(C)(C)C` [Compound 252, (S)-N-(3,3-dimethyl-1-(methylamino)-1-oxobutan-2-yl)-7-methyl-3-(pyridin-3-yl)-5,6,7,8-tetrahydroimidazo[1,5-a]pyrazine-1-carboxamide], the concentration for a half-maximal effect (EC50) in test [1] is greater than 10000 nM. In addition, the “+/− RCB2” value on rat CB2 receptor (rCB2) is on record as “+”.

Turning to `CN1CCn2c(-c3ccccc3)nc(C(=O)NCC(C)(C)C)c2C1` [Compound 57, 7-methyl-N-neopentyl-3-phenyl-5,6,7,8-tetrahydroimidazo[1,5-a]pyrazine-1-carboxamide], the values for the EC50 (in test [1]; on rat CB2 receptor (rCB2)) were greater than 10000 nM and greater than 10 µM, respectively.

The compound `CC(C)(C)OC(=O)N1CCn2c(-c3ccccc3)nc(C(=O)Nc3ccccc3)c2C1` [Compound 32, tert-butyl 3-phenyl-1-(phenylcarbamoyl)-5,6-dihydroimidazo[1,5-a]pyrazine-7(8H)-carboxylate] gave an EC50 in test [1] greater than 10000 nM. The “+/− RCB2” value on rat CB2 receptor (rCB2) is “−”.

As for `CNC(=O)[C@@H](NC(=O)c1nc(CCCN2CCOCC2)n2c1CN(C)CC2)C(C)(C)C` [Compound 309, (S)-N-(3,3-dimethyl-1-(methylamino)-1-oxobutan-2-yl)-7-methyl-3-(3-morpholinopropyl)-5,6,7,8-tetrahydroimidazo[1,5-a]pyrazine-1-carboxamide], the EC50 is greater than 10000 nM in test [1] and greater than 10 µM at rat CB2 receptor (rCB2).

Take `CC(C)CCNC(=O)c1nc(-c2ccc(Cl)cc2)n2c1CN(CCO)CC2` [Compound 159, 3-(4-chlorophenyl)-7-(2-hydroxyethyl)-N-isopentyl-5,6,7,8-tetrahydroimidazo[1,5-a]pyrazine-1-carboxamide]: in test [1] (setting [2]), the EC50 was greater than 10000 nM. In addition, the “+/− RCB2” value on rat CB2 receptor (rCB2) was “−”.

`CNC(=O)[C@@H](NC(=O)c1nc(-c2ccccc2)n2c1CN(C(C)=O)CCC2)C(C)(C)C` [Compound 463, (S)-8-acetyl-N-(3,3-dimethyl-1-(methylamino)-1-oxobutan-2-yl)-3-phenyl-6,7,8,9-tetrahydro-5H-imidazo[1,5-a][1,4]diazepine-1-carboxamide]: the EC50 in test [1] is greater than 10000 nM. In addition, the “+/− RCB2” value on rat CB2 receptor (rCB2) is “+”.

For the compound `CCc1nc(C(=O)N[C@H](C(=O)NC)C(C)(C)C)c2n1CCN(C)C2` [Compound 310, (S)-N-(3,3-dimethyl-1-(methylamino)-1-oxobutan-2-yl)-3-ethyl-7-methyl-5,6,7,8-tetrahydroimidazo[1,5-a]pyrazine-1-carboxamide], the EC50 in test [1] was greater than 10000 nM. On rat CB2 receptor (rCB2), the “+/− RCB2” value was “−”.

In the case of `C[C@H](NC(=O)c1nc(-c2ccccc2)n2c1CNCC2)c1ccccc1` [Compound 40, (S)-3-phenyl-N-(1-phenylethyl)-5,6,7,8-tetrahydroimidazo[1,5-a]pyrazine-1-carboxamide], the 50% effective concentration (EC50) in test [1] was greater than 10000 nM. Also, at rat CB2 receptor (rCB2), the “+/− RCB2” value is recorded as “+”.

Regarding `CNC(=O)[C@@H](NC(=O)c1nc(-c2ccccc2)n2c1CN(S(=O)(=O)c1ccc(Cl)cc1)CC2)C(C)(C)C` [Compound 106, (S)-7-(4-chlorophenylsulfonyl)-N-(3,3-dimethyl-1-(methylamino)-1-oxobutan-2-yl)-3-phenyl-5,6,7,8-tetrahydroimidazo[1,5-a]pyrazine-1-carboxamide], in test [1], the EC50 is greater than 10000 nM. Besides, the “+/− RCB2” value on rat CB2 receptor (rCB2) was “−”.

As for `COC(=O)N1CCn2c(-c3ccccc3)nc(C(=O)Nc3ccccc3)c2C1` [Compound 181, methyl 3-phenyl-1-(phenylcarbamoyl)-5,6-dihydroimidazo[1,5-a]pyrazine-7(8H)-carboxylate], the concentration for a half-maximal effect (EC50) in test [1] (setting [2]) is greater than 10000 nM. Moreover, the “+/− RCB2” value at rat CB2 receptor (rCB2) is reported as “−”.

The values above are taken from patent US7517874B2 (priority 2007, dated 2009).
